Measurements from patent US20260325502A1, “COMPOSITION FOR PREVENTING OR TREATING CANCER PAIN” (MARUISHI PHARMACEUTICAL CO., LTD., priority 2023, published 2026).
“Also recorded” adds a separate entry of the source.

Experiments:
[1] = tested on: cancer pain animal models; details: pregabalin; Non-Patent Literature 2; cited from earlier work
[2] = Non-Patent Literatures 2 and 8; cited from earlier work
central nervous system = details: rats; Table 2 in Non-Patent Literature 9; cited from earlier work
[3] = tested on: cancer pain model rats (MRMT-1 rat breast cancer cells, bone metastasis model); experiment: Measurement of pain threshold in bone metastasis cancer pain model rats (Dynamic Plantar Aesthesiometer); format: in vivo, Crl:CD (SD); details: 10 mg/kg and 30 mg/kg, oral
Description: Five-week-old female Crl:CD (SD) SPF rats (Charles River Japan) were injected with MRMT-1 cells (rat breast cancer cells) at 3×10^4 cells/20 μL/body into the medullary cavity at the proximal end of the diaphysis of the right tibia to create a bone metastasis model (day 0). On day 10 after the transplantation of the cancer cells (day 10), the rats were divided into 4 groups of 8 rats each: a control group (with administration of distilled water (trade name: Otsuka Distilled Water) manufactured by Otsuka Pharmaceutical Factory, Inc.), a 10 mg/kg compound A administration group, a 30 mg/kg compound A administration group, and a morphine administration group, as shown in Table 1 below. On day 11 after the transplantation of the cancer cells (day 11), each drug was orally or subcutaneously administered to the rats at a dose of 2 mL/kg. The pain threshold (g) of the plantar surface of the right hind paw was measured using a Dynamic Plantar Aesthesiometer (37450, Ugo Basile) under blinded conditions 1, 3, 6, and 24 hours after the administration. The average value of the pain threshold-time area under the curve (AUC) (g·hr) for 24 hours post-administration was determined for each group.

mice = experiment: Measurement of spontaneous locomotor activity (Supermex); format: in vivo, mouse, ICR
Description: Five-to six-week-old male ICR-SPF mice (Japan SLC, Inc.) were divided into 5 groups of 8 mice each: a control group (with administration of distilled water (trade name: Otsuka Distilled Water) manufactured by Otsuka Pharmaceutical Factory, Inc.), two 10 mg/kg compound A administration groups, and two 30 mg/kg compound A administration groups, as shown in Table 2 below. Compound A or distilled water at a dose of 10 mL/kg was orally administered to the mice. One or three hours after the administration of compound A or distilled water, the mice were transferred to a measurement cage, and spontaneous locomotor activity was measured for 30 minutes using Supermex (registered trademark) (Muromachi Kikai Co., Ltd.).

rats = experiment: Measurement of coordinated motor ability (rotarod); format: in vivo, rat, SD
Description: Five- to six-week-old male SD-SPF rats (Japan SLC, Inc.) were used in this experiment. The experimental schedule included training using a rotarod (SN445, Shinano Seisakusyo) for 3 days (6 times a day), starting from 3 days before the day of administration. On the day of administration, pre-values (time to stay on the rotarod before the administration of compound A or distilled water) were measured twice, and the rats that spent 180 seconds or more on the rotarod in either of the two measurements were selected. The rats were divided into 3 groups of 6 rats each: a control group (with administration of distilled water (trade name: Otsuka Distilled Water) manufactured by Otsuka Pharmaceutical Factory, Inc.), a 10 mg/kg compound A administration group, and a 30 mg/kg compound A administration group, as shown in Table 3 below. Compound A or distilled water was orally administered to the rats at a dose of 10 mL/kg, and the time to stay on the rotarod was measured 1, 3, 6, and 24 hours after the administration under the test conditions of 10 rotations/min with a cutoff of 180 seconds.

serotonin 3 receptor = details: Patent Literatures 1 and 2; cited from earlier work
[4] = summary of Experiments 1 and 2, 10 to 30 mg/kg

CC(C)C[C@H](CN)CC(=O)O [Pregabalin]
effect in cancer pain animal models [1]: effective in cancer pain animal models
side effects [2]: sedative effects such as dizziness, drowsiness, and loss of consciousness
influence on central nervous system relative to analgesic dose (central nervous system): suppresses the functions of the central nervous system (inhibits coordinated motor ability) at a dose lower than that is required to exert an analgesic effect

NC1CCN(c2cccc(Cl)n2)CC1 [compound A, 1-(6-chloropyridin-2-yl) piperidin-4-amine]
cancer pain threshold compared to control group ([3]; single dose, right hind paw, measured 1, 3, 6 and 24 h after administration, Dunnett's test, critical value of 1%, n = 8, FIG. 1): significant difference was observed; also recorded: significantly increased
pain threshold-time area under the curve (AUC) compared to subcutaneous morphine ([3]; versus morphine 3 mg/kg subcutaneous, up to 24 h after administration): no statistically significant difference
changes in spontaneous locomotor activity compared to control group (mice; 10 mg/kg and 30 mg/kg, oral, 1 or 3 h after administration, measured for 30 min, Dunnett's test, critical value of 5%, n = 8, FIG. 2): No statistical difference was observed; also recorded: no significant changes
suppression of spontaneous locomotor activity at a dose that induces an analgesic effect (mice; [4]): does not suppress spontaneous locomotor activity
changes in coordinated motor ability (time to stay on the rotarod) compared to control group (rats; 10 mg/kg and 30 mg/kg, oral, 1, 3, 6 and 24 h after administration, 10 rotations/min, cutoff 180 s, Dunnett's or Steel's test, critical value of 5%, n = 6, FIG. 3): No statistically significant difference was observed; also recorded: no significant changes
suppression of coordinated motor ability at a dose that induces an analgesic effect (rats; [4]): does not suppress spontaneous locomotor activity or coordinated motor ability
activity at serotonin 3 receptor (serotonin 3 receptor): serotonin 3 receptor agonist
